Assay [1] concerns A431cells (human epidermoid carcinoma). The experiment in a line: In vitro tumor cell proliferation assay (Cell Titer-Glo luminescent cell viability), A431 cells. The format is cell-based. The settings on record: A-431, 72 h, 72 hours drug exposure, 10% Fetal Bovine Serum, ATP luminescence readout, read-out: IC50 (50% inhibition of cell proliferation). In a few lines:
(§1)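 ATP luminescence (CellTiter-Glo) measured proliferation after 72 h compound exposure at 37 °C, giving IC50 values. Serial dilutions spanning 64 pM–100 μM in 0.1% DMSO were applied one day after plating 2.5×10^3 cells/well in RPMI plus 10% fetal bovine serum.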

Assay [2] concerns BT474 (human breast carcinoma). The experiment in a line: In vitro tumor cell proliferation assay (Cell Titer-Glo luminescent cell viability), BT474 cells. The format is cell-based. To be noted: BT-474, 72 hours drug exposure, 10% Fetal Bovine Serum, ATP luminescence readout, read-out: IC50 (50% inhibition of cell proliferation). An outline of the steps:
as §1

As to `O[C@H]1CCN(CCC2CCc3c(sc4ncnc(Nc5ccc(OCc6cccc(F)c6)c(Cl)c5)c34)C2)C1` (stereo partly drawn) [Example 186, (3S)-1-{2-[4-({3-chloro-4-[(3-fluorobenzyl)oxy]phenyl}amino)-5,6,7,8-tetrahydro[1]benzothieno[2,3-d]pyrimidin-7-yl]ethyl}pyrrolidin-3-ol], the IC50 in assay [1] and in assay [2] was less than 5 µM in each case.
As for `CNCCC1CCc2c(sc3ncnc(Nc4ccc(OCc5ccccn5)c(Cl)c4)c23)C1` (centres unmarked) [Example 187, N-[3-chloro-4-(pyridin-2-ylmethoxy)phenyl]-7-[2-(methylamino)ethyl]-5,6,7,8-tetrahydro[1]benzothieno[2,3-d]pyrimidin-4-amine], the IC50 is less than 50 µM in assay [1] and less than 5 µM in assay [2].
The corresponding values for `COCCN1CCN(CCC2CCc3c(sc4ncnc(Nc5ccc(OCc6ccccn6)c(Cl)c5)c34)C2)CC1` (centres unmarked) [Example 188, N-[3-chloro-4-(pyridin-2-ylmethoxy)phenyl]-7-{2-[4-(2-methoxyethyl)piperazin-1-yl]ethyl}-5,6,7,8-tetrahydro[1]benzothieno[2,3-d]pyrimidin-4-amine] are less than 50 µM and less than 5 µM.
The corresponding values for `COCCN(C)CCC1CCc2c(sc3ncnc(Nc4ccc(OCc5ccccn5)c(Cl)c4)c23)C1` (centres unmarked) [Example 189, N-[3-chloro-4-(pyridin-2-ylmethoxy)phenyl]-7-{2-[(2-methoxyethyl)(methyl)amino]ethyl}-5,6,7,8-tetrahydro[1]benzothieno[2,3-d]pyrimidin-4-amine] are less than 5 µM and less than 5 µM.
On to `Clc1cc(Nc2ncnc3sc4c(c23)CCC(CCN2CCCC2)C4)ccc1OCc1ccccn1` (centres unmarked) [Example 190, N-[3-chloro-4-(pyridin-2-ylmethoxy)phenyl]-7-(2-pyrrolidin-1-ylethyl)-5,6,7,8-tetrahydro[1]benzothieno[2,3-d]pyrimidin-4-amine], for which the IC50 in assay [1] and in assay [2] was less than 5 µM in each case.
With `Clc1cc(Nc2ncnc3sc4c(c23)CCC(CCN2CCCCC2)C4)ccc1OCc1ccccn1` (centres unmarked) [Example 191, N-[3-chloro-4-(pyridin-2-ylmethoxy)phenyl]-7-(2-piperidin-1-ylethyl)-5,6,7,8-tetrahydro[1]benzothieno[2,3-d]pyrimidin-4-amine], the IC50 in assay [1] and in assay [2] was less than 5 µM in each case.
For the compound `Clc1cc(Nc2ncnc3sc4c(c23)CCC(CCNCCN2CCOCC2)C4)ccc1OCc1ccccn1` (centres unmarked) [Example 192, N-[3-chloro-4-(pyridin-2-ylmethoxy)phenyl]-7-{2-[(2-morpholin-4-ylethyl)amino]ethyl}-5,6,7,8-tetrahydro[1]benzothieno[2,3-d]pyrimidin-4-amine], the IC50 in assay [1] and in assay [2] was less than 5 µM each time.
On to `CCNCCC1CCc2c(sc3ncnc(Nc4ccc(OCc5ccccn5)c(Cl)c4)c23)C1` (centres unmarked) [Example 193, N-[3-chloro-4-(pyridin-2-ylmethoxy)phenyl]-7-[2-(ethylamino)ethyl]-5,6,7,8-tetrahydro[1]benzothieno[2,3-d]pyrimidin-4-amine], for which the IC50 in assay [1] and in assay [2] was less than 5 µM in each case.
Take `CCN(CC)CCC1CCc2c(sc3ncnc(Nc4ccc(OCc5ccccn5)c(Cl)c4)c23)C1` (centres unmarked) [Example 194, N-[3-chloro-4-(pyridin-2-ylmethoxy)phenyl]-7-[2-(diethylamino)ethyl]-5,6,7,8-tetrahydro[1]benzothieno[2,3-d]pyrimidin-4-amine]: the IC50 in assay [1] and in assay [2] was less than 5 µM each time.
On to `COCCCNCCC1CCc2c(sc3ncnc(Nc4ccc(OCc5ccccn5)c(Cl)c4)c23)C1` (centres unmarked) [Example 195, N-[3-chloro-4-(pyridin-2-ylmethoxy)phenyl]-7-{2-[(3-methoxypropyl)amino]ethyl}-5,6,7,8-tetrahydro[1]benzothieno[2,3-d]pyrimidin-4-amine], for which the IC50 in assay [1] and in assay [2] was less than 5 µM throughout.
Turning to `Clc1cc(Nc2ncnc3sc4c(c23)CCC(CCN2CCN(Cc3ccncc3)CC2)C4)ccc1OCc1ccccn1` (centres unmarked) [Example 196, N-[3-chloro-4-(pyridin-2-ylmethoxy)phenyl]-7-{2-[4-(pyridin-4-ylmethyl)piperazin-1-yl]ethyl}-5,6,7,8-tetrahydro[1]benzothieno[2,3-d]pyrimidin-4-amine], the IC50 in assay [1] and in assay [2] was less than 5 µM each time.
For `O[C@@H]1CCN(CCC2CCc3c(sc4ncnc(Nc5ccc(OCc6cccc(F)c6)c(Cl)c5)c34)C2)C1` (stereo partly drawn) [Example 197, (3R)-1-{2-[4-({3-chloro-4-[(3-fluorobenzyl)oxy]phenyl}amino)-5,6,7,8-tetrahydro[1]benzothieno[2,3-d]pyrimidin-7-yl]ethyl}pyrrolidin-3-ol], the IC50 in assay [1] and in assay [2] was less than 5 µM in each case.
Turning to `COC[C@H]1CCCN1CCC1CCc2c(sc3ncnc(Nc4ccc(OCc5cccc(F)c5)c(Cl)c4)c23)C1` (stereo partly drawn) [Example 198, N-{3-chloro-4-[(3-fluorobenzyl)oxy]phenyl}-7-{2-[(2R)-2-(methoxymethyl)pyrrolidin-1-yl]ethyl}-5,6,7,8-tetrahydro[1]benzothieno[2,3-d]pyrimidin-4-amine], the IC50 in assay [1] and in assay [2] was less than 5 µM each time.
For the compound `Fc1cccc(COc2ccc(Nc3ncnc4sc5c(c34)CCC(CCN3CCSCC3)C5)cc2Cl)c1` (centres unmarked) [Example 199, N-{3-chloro-4-[(3-fluorobenzyl)oxy]phenyl}-7-(2-thiomorpholin-4-ylethyl)-5,6,7,8-tetrahydro[1]benzothieno[2,3-d]pyrimidin-4-amine], the IC50 in assay [1] is less than 50 µM; in assay [2], less than 5 µM.
The corresponding values for `CS(=O)(=O)CCNCCC1CCc2c(sc3ncnc(Nc4ccc(OCc5cccc(F)c5)c(Cl)c4)c23)C1` (centres unmarked) [Example 200, N-{3-chloro-4-[(3-fluorobenzyl)oxy]phenyl}-7-(2-{[2-(methylsulfonyl)ethyl]amino}ethyl)-5,6,7,8-tetrahydro[1]benzothieno[2,3-d]pyrimidin-4-amine] are less than 5 µM and less than 5 µM.
For the compound `C=CC1(O)CCc2c(sc3ncnc(Nc4ccc(F)c(Cl)c4)c23)C1` (centres unmarked) [Example 201, 4-[(3-chloro-4-fluorophenyl)amino]-7-vinyl-5,6,7,8-tetrahydro[1]benzothieno[2,3-d]pyrimidin-7-ol], the IC50 in assay [1] and in assay [2] was less than 50 µM each time.
As to `CS(=O)(=O)OCCC1CCc2c(sc3ncnc(Nc4ccc5c(cnn5Cc5ccccc5)c4)c23)C1` (centres unmarked) [Example 202, 2-{4-[(1-benzyl-1H-indazol-5-yl)amino]-5,6,7,8-tetrahydro[1]benzothieno[2,3-d]pyrimidin-7-yl}ethyl methanesulfonate], the IC50 in assay [1] and in assay [2] was less than 5 µM each time.
`OCCC1CCc2c(sc3ncnc(Nc4ccc5c(cnn5Cc5ccccc5)c4)c23)C1` (centres unmarked) [Example 203, 2-[4-(1-Benzyl-1H-indazol-5-ylamino)-5,6,7,8-tetrahydro-benzo[4,5]thieno[2,3-d]pyrimidin-7-yl]-ethanol]: the IC50 in assay [1] and in assay [2] was less than 5 µM throughout.
Turning to `CCOC(=O)CC1CCc2c(sc3ncnc(Nc4ccc5c(cnn5Cc5ccccc5)c4)c23)C1` (centres unmarked) [Example 204, ethyl {4-[(1-benzyl-1H-indazol-5-yl)amino]-5,6,7,8-tetrahydro[1]benzothieno[2,3-d]pyrimidin-7-yl}acetate], the figures for the IC50 in assay [1] and in assay [2] were less than 50 µM and less than 5 µM, respectively.

(Values after patent US7238701B2, “Substituted tetrahydrobenzothienopyrimidinamine compounds useful for treating hyper-proliferative disorders” (Bayer Pharmaceuticals Corporation, priority 2003, dated 2007).)
